In one experiment the target is EGFR (human) (UniProt P00533). The experiment is described as follows: Enzyme Assay.
In experiment [1] the target is EGFR (human), P00533 [L858R]. Nature of the experiment: Enzyme Assay.
In experiment [2] the target is EGFR (human), P00533 [L861Q]. Nature of the experiment: Enzyme Assay.
In experiment [3] the target is EGFR (human), P00533 [L858R]. The experiment is described as follows: Cell-Based Assay. The conditions noted are these: ba/f3.

EGFR (human), P00533 [L861Q], sequence (P00533 whole entry L861Q, looked up): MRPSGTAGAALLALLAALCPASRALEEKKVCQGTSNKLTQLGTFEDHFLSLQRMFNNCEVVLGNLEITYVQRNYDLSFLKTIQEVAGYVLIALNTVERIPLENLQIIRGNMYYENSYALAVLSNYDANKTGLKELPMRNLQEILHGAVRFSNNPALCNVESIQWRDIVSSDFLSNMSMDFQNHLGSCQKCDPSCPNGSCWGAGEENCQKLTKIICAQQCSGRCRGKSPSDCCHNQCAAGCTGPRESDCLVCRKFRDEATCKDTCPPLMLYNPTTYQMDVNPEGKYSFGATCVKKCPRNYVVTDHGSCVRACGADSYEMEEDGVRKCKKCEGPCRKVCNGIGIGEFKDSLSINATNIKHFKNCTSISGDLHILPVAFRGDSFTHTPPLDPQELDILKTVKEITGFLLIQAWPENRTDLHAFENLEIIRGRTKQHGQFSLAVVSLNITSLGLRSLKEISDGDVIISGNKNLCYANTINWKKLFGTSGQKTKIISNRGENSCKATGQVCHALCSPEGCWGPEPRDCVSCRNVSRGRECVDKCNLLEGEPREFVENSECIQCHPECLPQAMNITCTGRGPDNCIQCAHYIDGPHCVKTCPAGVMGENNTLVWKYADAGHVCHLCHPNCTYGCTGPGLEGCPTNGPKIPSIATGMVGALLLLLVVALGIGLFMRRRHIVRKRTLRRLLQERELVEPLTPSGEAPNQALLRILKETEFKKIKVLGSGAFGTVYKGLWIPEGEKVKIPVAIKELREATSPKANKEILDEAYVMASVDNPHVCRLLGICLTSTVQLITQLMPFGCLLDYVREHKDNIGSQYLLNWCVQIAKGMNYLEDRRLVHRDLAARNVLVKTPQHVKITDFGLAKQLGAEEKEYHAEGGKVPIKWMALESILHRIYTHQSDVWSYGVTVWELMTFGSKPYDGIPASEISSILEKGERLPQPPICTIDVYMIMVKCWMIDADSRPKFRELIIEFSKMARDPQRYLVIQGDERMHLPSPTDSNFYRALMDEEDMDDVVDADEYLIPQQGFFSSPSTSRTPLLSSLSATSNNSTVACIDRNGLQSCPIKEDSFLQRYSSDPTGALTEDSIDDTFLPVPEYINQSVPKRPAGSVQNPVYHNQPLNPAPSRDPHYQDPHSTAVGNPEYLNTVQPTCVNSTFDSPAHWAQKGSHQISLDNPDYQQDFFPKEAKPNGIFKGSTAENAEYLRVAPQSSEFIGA
EGFR (human), P00533 [L858R], sequence (P00533 whole entry L858R, looked up): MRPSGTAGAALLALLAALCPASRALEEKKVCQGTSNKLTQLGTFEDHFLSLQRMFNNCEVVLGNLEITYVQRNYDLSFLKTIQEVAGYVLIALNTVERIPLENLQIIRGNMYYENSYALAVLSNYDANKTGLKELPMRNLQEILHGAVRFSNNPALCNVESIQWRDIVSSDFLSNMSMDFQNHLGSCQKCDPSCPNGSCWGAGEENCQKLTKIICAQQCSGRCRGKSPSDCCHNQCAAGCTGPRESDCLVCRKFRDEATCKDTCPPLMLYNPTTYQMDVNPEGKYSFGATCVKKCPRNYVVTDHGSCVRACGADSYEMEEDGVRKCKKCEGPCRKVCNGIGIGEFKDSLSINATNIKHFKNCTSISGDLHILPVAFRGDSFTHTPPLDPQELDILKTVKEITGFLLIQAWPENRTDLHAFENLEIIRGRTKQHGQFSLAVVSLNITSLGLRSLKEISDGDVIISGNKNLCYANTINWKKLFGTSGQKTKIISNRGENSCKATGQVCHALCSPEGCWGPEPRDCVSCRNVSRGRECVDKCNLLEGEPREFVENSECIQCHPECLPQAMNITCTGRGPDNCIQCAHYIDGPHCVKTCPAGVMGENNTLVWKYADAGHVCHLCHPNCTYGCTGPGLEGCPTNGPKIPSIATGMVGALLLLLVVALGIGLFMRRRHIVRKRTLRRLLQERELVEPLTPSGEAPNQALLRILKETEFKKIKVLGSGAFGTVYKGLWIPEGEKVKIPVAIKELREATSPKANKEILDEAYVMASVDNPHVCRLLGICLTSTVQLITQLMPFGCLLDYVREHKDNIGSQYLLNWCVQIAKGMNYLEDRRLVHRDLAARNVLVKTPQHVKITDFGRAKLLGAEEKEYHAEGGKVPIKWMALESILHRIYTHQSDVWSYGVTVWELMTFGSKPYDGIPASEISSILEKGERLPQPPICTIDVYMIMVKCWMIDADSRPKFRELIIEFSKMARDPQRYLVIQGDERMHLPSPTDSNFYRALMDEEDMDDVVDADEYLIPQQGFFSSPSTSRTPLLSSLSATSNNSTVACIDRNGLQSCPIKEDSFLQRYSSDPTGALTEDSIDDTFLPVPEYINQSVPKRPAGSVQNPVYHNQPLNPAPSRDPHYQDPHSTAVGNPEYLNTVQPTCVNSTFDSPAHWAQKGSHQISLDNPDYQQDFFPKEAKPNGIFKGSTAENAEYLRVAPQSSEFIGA
EGFR (human), sequence (P00533 whole entry, looked up): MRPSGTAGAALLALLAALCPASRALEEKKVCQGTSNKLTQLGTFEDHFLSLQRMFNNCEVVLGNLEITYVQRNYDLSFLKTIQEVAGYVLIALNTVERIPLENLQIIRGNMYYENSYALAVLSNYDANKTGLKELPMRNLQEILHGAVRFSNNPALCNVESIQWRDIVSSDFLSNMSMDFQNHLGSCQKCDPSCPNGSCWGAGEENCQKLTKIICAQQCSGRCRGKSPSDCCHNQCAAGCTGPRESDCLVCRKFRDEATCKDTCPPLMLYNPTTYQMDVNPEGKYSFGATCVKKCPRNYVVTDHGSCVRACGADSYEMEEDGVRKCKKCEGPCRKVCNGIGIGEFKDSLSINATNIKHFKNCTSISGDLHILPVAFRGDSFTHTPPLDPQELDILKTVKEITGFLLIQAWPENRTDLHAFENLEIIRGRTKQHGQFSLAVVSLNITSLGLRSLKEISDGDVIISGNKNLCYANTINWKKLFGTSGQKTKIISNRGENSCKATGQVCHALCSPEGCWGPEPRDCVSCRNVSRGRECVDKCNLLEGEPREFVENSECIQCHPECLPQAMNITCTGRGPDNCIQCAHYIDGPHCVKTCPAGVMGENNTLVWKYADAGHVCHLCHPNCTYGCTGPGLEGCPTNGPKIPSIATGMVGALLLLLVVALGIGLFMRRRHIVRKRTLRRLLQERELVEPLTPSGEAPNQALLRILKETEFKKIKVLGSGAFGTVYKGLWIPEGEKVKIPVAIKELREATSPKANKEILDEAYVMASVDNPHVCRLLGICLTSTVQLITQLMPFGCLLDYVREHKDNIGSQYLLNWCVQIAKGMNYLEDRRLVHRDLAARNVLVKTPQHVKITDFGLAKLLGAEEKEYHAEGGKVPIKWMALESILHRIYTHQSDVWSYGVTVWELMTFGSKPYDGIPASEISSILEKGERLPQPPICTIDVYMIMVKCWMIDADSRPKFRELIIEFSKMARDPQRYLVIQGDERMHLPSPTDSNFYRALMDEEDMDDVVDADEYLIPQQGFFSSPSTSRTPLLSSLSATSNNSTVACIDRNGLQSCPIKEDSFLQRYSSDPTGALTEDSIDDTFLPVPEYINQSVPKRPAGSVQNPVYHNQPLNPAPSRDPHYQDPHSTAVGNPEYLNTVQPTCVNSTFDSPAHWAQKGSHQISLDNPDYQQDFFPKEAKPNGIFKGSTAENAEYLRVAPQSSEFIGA

The IC50 is the midpoint of a concentration-inhibition curve. As to `COc1cc(CO)ccc1-c1cc2c(N[C@H](CO)c3ccccc3)ncnc2s1`, the half-maximal inhibitory concentration (IC50) (against EGFR (human); in experiment [1]; in experiment [2]) was 0.3 nM throughout.

`COc1ccc(C=O)cc1-c1cc2c(N[C@H](C)c3ccccc3)ncnc2s1`: the IC50 against EGFR (human) is 2.6 nM.

In turn, `COc1cc(F)ccc1-c1cc2c(N[C@H](CO)c3ccccc3)ncnc2[nH]1` yielded an IC50 against EGFR (human) of 1 nM.

On to `C[C@@H](Nc1ncnc2sc(-c3ccccc3O)cc12)c1ccccc1`, for which the IC50 against EGFR (human) stood at 35 nM.

On EGFR (human), `COc1c(CO)cccc1-c1cc2c(N[C@H](C)c3ccccc3)ncnc2s1` returned an IC50 of 1.6 nM.

The molecule `COc1ccc(-c2cc3c(N[C@H](C)c4ccccc4)ncnc3s2)cc1` had a concentration for half-maximal inhibition (IC50) on EGFR (human) of 54 nM.

Molecule `COc1ccc(-c2cc3c(N[C@H](CO)c4ccccc4)ncnc3o2)cc1` showed a 50% inhibitory concentration (IC50) against EGFR (human) of 2.7 nM.

As to `OC[C@@H](Nc1ncnc2[nH]c(-c3ccccc3)cc12)c1ccccc1`, the IC50 stood at 127 nM in experiment [3], 0.7 nM against EGFR (human), 1.3 nM in experiment [1] and 1 nM in experiment [2].

With `COc1cccc(OC)c1-c1cc2c(N[C@H](C)c3ccccc3)ncnc2s1`, at EGFR (human), the IC50 came out at 1.1 nM.

The molecule `C[C@@H](Nc1ncnc2sc(-c3ccccc3)cc12)c1ccccc1` registered an IC50 on EGFR (human) of 59 nM.

The molecule `COc1cc(CO)ccc1-c1cc2c(Nc3ccccc3)ncnc2s1` yielded a half-maximal inhibitory concentration (IC50) at EGFR (human) of 3.1 nM.

At EGFR (human), `C[C@@H](Nc1ncnc2sc(-c3cccc(O)c3)cc12)c1ccccc1` displayed an IC50 of 45 nM.

For `COc1cc(CO)ccc1-c1cc2c(NCc3ccccc3)ncnc2s1`, the half-inhibitory concentration (IC50) on EGFR (human) was 4.8 nM.

On EGFR (human), `COc1cc(C=O)ccc1-c1cc2c(N[C@H](CO)c3ccccc3)ncnc2[nH]1` came in with an IC50 of 0.3 nM.

As to `Cc1cccc(-c2cc3c(N[C@H](C)c4ccccc4)ncnc3s2)c1`, the IC50 against EGFR (human) was 77 nM.

As for `C[C@@H](Nc1ncnc2sc(-c3ccc(O)cc3)cc12)c1ccccc1`, the half-maximal inhibitory concentration (IC50) at EGFR (human) stood at 84 nM.

`COc1cccc(OC)c1-c1cc2c(N[C@H](CO)c3ccccc3)ncnc2s1` returned an IC50 against EGFR (human) of 0.79 nM.

Molecule `COc1cc(C=O)ccc1-c1cc2c(NCc3ccccc3)ncnc2s1` displayed an IC50 on EGFR (human) of 6.3 nM.

`COc1cc(C=O)ccc1-c1cc2c(N[C@H](C)c3ccccc3)ncnc2[nH]1` gave an IC50 at EGFR (human) of 0.5 nM.

Take `COc1cc(C=O)ccc1-c1cc2c(N[C@H](CO)c3ccccc3)ncnc2s1`: the 50% inhibitory concentration (IC50) against EGFR (human) was found to be 0.8 nM; in experiment [1], 0.9 nM; in experiment [2] it was 0.8 nM.

Regarding `COc1ccccc1-c1cc2c(N[C@H](CO)c3ccccc3)ncnc2s1`, the IC50 worked out at 0.9 nM against EGFR (human), 1.3 nM in experiment [1] and 1 nM in experiment [2].

On EGFR (human), `COc1ccc(-c2cc3c(N[C@H](C)c4ccccc4)ncnc3s2)c(OC)c1` came in with a 50% inhibitory concentration (IC50) of 5 nM.

On EGFR (human), `COC[C@@H](Nc1ncnc2[nH]c(-c3ccccc3)cc12)c1ccccc1` had an IC50 of 1.8 nM.

On to `COc1cc(C=O)ccc1-c1cc2c(Nc3ccccc3)ncnc2s1`, for which, on EGFR (human), the concentration for half-maximal inhibition (IC50) came out at 20 nM.

As to `COc1cc(CO)ccc1-c1cc2c(N[C@H](C)c3ccccc3)ncnc2[nH]1`, the concentration for half-maximal inhibition (IC50) in experiment [3] stood at 99 nM; against EGFR (human), 0.2 nM; in experiment [1], 0.4 nM; in experiment [2], 0.2 nM.

Consider `C[C@@H](Nc1ncnc2sc(-c3ccc(CO)cc3)cc12)c1ccccc1`, for which the IC50 against EGFR (human) was 6.6 nM.

`COc1ccccc1-c1cc2c(N[C@H](CO)c3ccccc3)ncnc2[nH]1`: the half-maximal inhibitory concentration (IC50) in experiment [3] was found to be 134 nM; against EGFR (human), 0.5 nM; in experiment [1], 0.1 nM; in experiment [2], 0.2 nM.

`COc1cc(C=O)ccc1-c1cc2c(N[C@H](C)c3ccccc3)ncnc2s1`: the half-inhibitory concentration (IC50) on EGFR (human) was 3 nM; in experiment [1] it was 4.3 nM; in experiment [2], 3.9 nM.

At EGFR (human), `OC[C@@H](Nc1ncnc2oc(-c3ccc(O)cc3)cc12)c1ccccc1` registered a concentration for half-maximal inhibition (IC50) of 2 nM.

`Cc1ccccc1-c1cc2c(N[C@H](C)c3ccccc3)ncnc2s1` yielded a 50% inhibitory concentration (IC50) against EGFR (human) of 153 nM.

`COc1cccc(-c2cc3c(N[C@H](C)c4ccccc4)ncnc3s2)c1` gave a 50% inhibitory concentration (IC50) on EGFR (human) of 37 nM.

The molecule `OC[C@@H](Nc1ncnc2sc(-c3ccccc3O)cc12)c1ccccc1` registered an IC50 against EGFR (human) of 3.4 nM.

The molecule `C[C@@H](Nc1ncnc2sc(-c3cccc(CO)c3)cc12)c1ccccc1` displayed an IC50 on EGFR (human) of 9.1 nM.

Turning to `COc1cc(C=O)ccc1-c1cc2c(NCc3ccccc3)ncnc2[nH]1`, the IC50 against EGFR (human) was 2.1 nM.

On to `COc1cc(CO)ccc1-c1cc2c(N[C@H](C)c3ccccc3)ncnc2s1`, for which the half-inhibitory concentration (IC50) was determined as 0.6 nM against EGFR (human), 0.7 nM in experiment [1] and 0.6 nM in experiment [2].

In the case of `COc1ccc(CO)cc1-c1cc2c(N[C@H](C)c3ccccc3)ncnc2s1`, at EGFR (human), the 50% inhibitory concentration (IC50) was 4.7 nM.

On to `COc1ccccc1-c1cc2c(N[C@H](C)c3ccccc3)ncnc2s1`, for which the half-inhibitory concentration (IC50) turned out to be 6.7 nM against EGFR (human), 7.71 nM in experiment [1] and 9.06 nM in experiment [2].

Regarding `COc1cc(F)ccc1-c1cc2c(N[C@H](C)c3ccccc3)ncnc2s1`, on EGFR (human), the IC50 was 6.3 nM.

On EGFR (human), `C[C@@H](Nc1ncnc2sc(-c3ccccc3CO)cc12)c1ccccc1` gave an IC50 of 38 nM.

For the molecule `COc1cc(CO)ccc1-c1cc2c(N[C@H](CO)c3ccc(F)cc3)ncnc2[nH]1`, the IC50 was 83 nM in experiment [3], 0.3 nM against EGFR (human), 0.6 nM in experiment [1] and 0.5 nM in experiment [2].

With `OCc1ccc(-c2cc3c(N[C@H](CO)c4ccccc4)ncnc3[nH]2)cc1`, the IC50 in experiment [3] came to 172 nM; at EGFR (human), 0.4 nM; in experiment [1], 0.4 nM; in experiment [2], 0.2 nM.

`CC[C@@H](Nc1ncnc2sc(-c3ccccc3O)cc12)c1ccccc1`: the half-inhibitory concentration (IC50) on EGFR (human) stood at 33 nM.

Turning to `COc1cc(CO)ccc1-c1cc2c(NCc3ccccc3)ncnc2[nH]1`, the IC50 on EGFR (human) is 0.5 nM; in experiment [1], 0.8 nM; in experiment [2] it was 0.4 nM.

At EGFR (human), `Cc1ccc(-c2cc3c(N[C@H](C)c4ccccc4)ncnc3s2)cc1` came in with an IC50 of 105 nM.

Take `Oc1ccccc1-c1cc2c(NCc3ccccc3)ncnc2s1`: the IC50 on EGFR (human) is 29 nM.

Regarding `OCc1ccc(-c2cc3c(N[C@H](CO)c4ccccc4)ncnc3s2)cc1`, the figures for the IC50 (against EGFR (human); in experiment [1]; in experiment [2]) were 2.2 nM, 2.3 nM and 1.6 nM, respectively.

The molecule `COc1cc(C=O)ccc1-c1cc2c(N[C@H](CO)c3ccc(F)cc3)ncnc2[nH]1` had a 50% inhibitory concentration (IC50) against EGFR (human) of 0.6 nM.

The values are drawn from the Kinase Knowledgebase extract (Sharma et al. 2016).
